Experimental data taken from patent US8003823B2, “Halo active aromatic sulfonamide organic compounds and odor control uses therefor” (priority 2002, dated 2011).

Tests used:
[1] = Odor control spray test, six person human panel: garlic odor (DMSO); parameters: key: E=Excellent, immediate removal of odor, no remaining odor.; G=Good, Immediate (within seconds) reduction of odor, very slight but detectable trace odor remains.; F=Fair, Immediate (within seconds) reduction, more pronounced odor remains.; P=Detectable reduction in odor but rate of reduction is slow and a much more pronounced odor remains; details: 1 g DMSO, 3 g of 1% w/w solution with 0.3% Avenal S-74, pH 8.0-9.0, sprayed, 20° C.
Protocol: (§1) For purposes of conducting the test in accordance with the below listed Examples a series of odorous test reagents were prepared. The utilized odorous test reagents are in accordance with the following:
DMSO (dimethyl sulfoxide) 1 g was used for each test.
(§2) Unless otherwise specified separate 1% w/w solutions in water of each halo active aromatic sulfonamide derivative were prepared for use. Each solution also contained 0.3% Avenal S-74. The pH of the resulting formulations varied between 8.0 and 9.0.
(§3) The testing protocol for Examples 1 thru 12 involved is as follows: The defined odorous reagents were added to a beaker, watch glass, or petri dish. For each aromatic sulfonamide derivative, 3 grams of the formulated odor control solution defined above were sprayed with a trigger sprayer, separately onto each odor (onion, garlic, fox urine, rotten egg. Odor evaluations were then made by a six person human panel.
(§4) The evaluation criteria utilized is as follows;
(§5) All test evaluations were made at 20° C.

[2] = Odor control spray test, six person human panel: onion odor; parameters: key: E=Excellent, immediate removal of odor, no remaining odor.; G=Good, Immediate (within seconds) reduction of odor, very slight but detectable trace odor remains.; F=Fair, Immediate (within seconds) reduction, more pronounced odor remains.; P=Detectable reduction in odor but rate of reduction is slow and a much more pronounced odor remains; details: 2 g chopped white onion, 3 g of 1% w/w solution with 0.3% Avenal S-74, pH 8.0-9.0, sprayed, 20° C.
Protocol: as §1
2 g samples of chopped white onion (Approximately ⅛″ cubes) were prepared and used for each test.
as §2, §3, §4, §5

[3] = Odor control spray test, six person human panel: rotten egg odor (sodium sulfide + acetic acid); parameters: key: E=Excellent, immediate removal of odor, no remaining odor.; G=Good, Immediate (within seconds) reduction of odor, very slight but detectable trace odor remains.; F=Fair, Immediate (within seconds) reduction, more pronounced odor remains.; P=Detectable reduction in odor but rate of reduction is slow and a much more pronounced odor remains; details: 0.1 g 5% sodium sulfide solution + 2 drops glacial acetic acid, 3 g of 1% w/w solution with 0.3% Avenal S-74, pH 8.0-9.0, sprayed, 20° C.
Protocol: as §1
0.1 g of a 5% sodium sulfide solution was added to a beaker and 2 drops of glacial acetic acid was added to prepare the rotten egg scent and used for each test.
as §2, §3, §4, §5

[4] = Odor control spray test, six person human panel: fox urine odor; parameters: key: E=Excellent, immediate removal of odor, no remaining odor.; G=Good, Immediate (within seconds) reduction of odor, very slight but detectable trace odor remains.; F=Fair, Immediate (within seconds) reduction, more pronounced odor remains.; P=Detectable reduction in odor but rate of reduction is slow and a much more pronounced odor remains; details: 0.5 g red fox urine, 3 g of 1% w/w solution with 0.3% Avenal S-74, pH 8.0-9.0, sprayed, 20° C.
Protocol: as §1
0.5 g of deer hunter's grade red fox urine was used for each test.
as §2, §3, §4, §5

[5] = Stability of sulfonamide in base formulation at various pHs and alcohols; type: physicochemical
Protocol: In order to evaluate the stability of various sulfonamide compounds for use in odor control, the stability of N-chloro-4carboxybenzenesulfonamide disodium salt was evaluated at various pHs. A base sulfonamide formulation was prepared in accordance with the following formulation: […]
The pH of 20 ml sample of the base formulation is 8.7. The temperature of the sample was raised to 50° C. and the sample was allowed to stand for 30 days.
21. The test protocol of Example 20 was repeated except that the pH of the sample was adjusted to 6.0, with 1N sulfuric acid and the sample was allowed to stand for 1 day. At the end of this period 0%, of the N-chloro-4-carboxybenzenesulfonamide disodium salt remained.
22. The test procedure of Example 20 was repeated, wherein the pH of the sample was adjusted to 6.0 with 1N sulfuric acid and the t-Butanol was replaced with ethanol. The solution was allowed to stand 1 day at which time 0% of the sulfonamide compound remained.
23. The test procedure of Example 20 was repeated where the pH of the sample was 8.7 and the t-butanol was replaced with ethanol. The sample was allowed to stand for 7 days. At the end of this period 0%, the N-chloro-4-carboxybenzenesulfonamide disodium salt remained.
24. The test procedure of Example 20 was repeated, wherein the pH of the sample was adjusted to 10.3 with 1N sodium hydroxide and the t-Butanol was replaced with ethanol. The solution was allowed to stand 30 days at which time 70% of the sulfonamide compound remained.
25. The test procedure of Example 20 was repeated, wherein the pH of the sample was adjusted to 6.0 with 1N sulfuric acid and the t-Butanol was replaced with isopropanol. The solution was allowed to stand 1 day at which time 0% of the sulfonamide compound remained.
26. The test procedure of Example 20 was repeated where the pH of the sample was 8.7 and the t-butanol was replaced with isopropanol. The sample was allowed to stand for 7 days. At the end of this period 50%, the N-chloro-4-carboxybenzenesulfonamide disodium salt remained.
27. The test procedure of Example 20 was repeated, wherein the pH of the sample was adjusted to 10.3 with 1N sodium hydroxide and the t-Butanol was replaced with isopropanol. The solution was allowed to stand 30 days at which time 90% of the sulfonamide compound remained.

sulfonamide compound remained ([5]; base formulation with t-Butanol, pH 8.7, 50° C., 30 days) [%]	sulfonamide compound remained ([5]; t-Butanol replaced with ethanol, pH 6.0, 50° C., 1 day) [%]	sulfonamide compound remained ([5]; t-Butanol replaced with ethanol, pH 10.3 with 1N sodium hydroxide, 50° C., 30 days) [%]	sulfonamide compound remained ([5]; t-Butanol replaced with isopropanol, pH 6.0, 50° C., 1 day) [%]	sulfonamide compound remained ([5]; t-Butanol replaced with isopropanol, pH 10.3 with 1N sodium hydroxide, 50° C., 30 days) [%]	sulfonamide compound remained ([5]; t-Butanol, pH adjusted to 6.0 with 1N sulfuric acid, 50° C., 1 day) [%]	sulfonamide compound remained ([5]; t-butanol replaced with ethanol, pH 8.7, 50° C., 7 days) [%]	sulfonamide compound remained ([5]; t-butanol replaced with isopropanol, pH 8.7, 50° C., 7 days) [%]	Compound	Garlic odor evaluation [1]	Onion odor evaluation [2]	Rotten Egg odor evaluation [3]	Fox Urine odor evaluation [4]
								O=C([O-])c1ccc(S(=O)(=O)[N-]Cl)cc1.[Na+].[Na+] [Example 12]	F	E	E	E
								O=[N+]([O-])c1ccc(S(=O)(=O)[N-]Cl)cc1.[Na+] [Example 11]	F	G	F	E
99.5	0	70	0	90	0	0	50	N-chloro-4-carboxybenzenesulfonamide disodium salt				
